One data set has as its system 1510 mRNA. The data set can be described thus: 1510 mRNA in aortic arches of ApoE knockout mice (TaqMan). Type of data set: in vivo. The note with it: relative to abdominal aorta, 12 weeks. The text has this:
(§1) This example describes the TaqMan™ procedure. The Taqman™ procedure is a quantitative, reverse transcription PCR-based approach for detecting mRNA. The RT-PCR reaction exploits the 5′ nuclease activity of AmpliTaq Gold™ DNA Polymerase to cleave a TaqMan™ probe during PCR. Briefly, cDNA was generated from the samples of interest, e.g., heart, kidney, liver, skeletal muscle, and various vessels, and used as the starting material for PCR amplification. In addition to the 5′ and 3′ gene-specific primers, a gene-specific oligonucleotide probe (complementary to the region being amplified) was included in the reaction (i.e., the Taqman™ probe). […]
(§2) During the PCR reaction, cleavage of the probe separates the reporter dye and the quencher dye, resulting in increased fluorescence of the reporter. Accumulation of PCR products is detected directly by monitoring the increase in fluorescence of the reporter dye. When the probe is intact, the proximity of the reporter dye to the quencher dye results in suppression of the reporter fluorescence. […]
(In general: In qPCR the cycle at which signal appears reflects the starting amount.)

The next data set concerns 966 mRNA. As to the kind of experiment: 966 mRNA in aortic arches of mice given captopril (TaqMan). In kind it is in vivo. The note with it: given for 6 or 12 weeks.
Source text: as §1, §2

The subject of a further data set is 1261 mRNA. As to the kind of experiment: 1261 mRNA in statically cultured or shear-stressed cells (TaqMan). Type of data set: cell-based. An excerpt:
(§3) This example describes the TaqMan™ procedure. The Taqman™ procedure is a quantitative, reverse transcription PCR-based approach for detecting mRNA. The RT-PCR reaction exploits the 5′ nuclease activity of AmpliTaq Gold™ DNA Polymerase to cleave a TaqMan™ probe during PCR. Briefly, cDNA was generated from the samples of interest, e.g., heart, kidney, liver, skeletal muscle, and various vessels, and used as the starting material for PCR amplification. In addition to the 5′ and 3′ gene-specific primers, a gene-specific oligonucleotide probe (complementary to the region being amplified) was included in the reaction (i.e., the Taqman™ probe). The TaqMan™ probe includes the oligonucleotide with a fluorescent reporter dye covalently linked to the 5′ end of the probe (such as FAM (6-carboxyfluorescein), TET (6-carboxy4,7,2′,7′-tetrachlorofluorescein), JOE (6-carboxy-4,5-dichloro-2,7-dimethoxyfluorescein), or VIC) and a quencher dye (TAMRA (6-carboxy-N,N,N′,N′-tetramethylrhodamine) at the 3′ end of the probe.
(§4) During the PCR reaction, cleavage of the probe separates the reporter dye and the quencher dye, resulting in increased fluorescence of the reporter. Accumulation of PCR products is detected directly by monitoring the increase in fluorescence of the reporter dye. When the probe is intact, the proximity of the reporter dye to the quencher dye results in suppression of the reporter fluorescence. During PCR, if the target of interest is present, the probe specifically anneals between the forward and reverse primer sites. The 5′-3′ nucleolytic activity of the AmpliTaq™ Gold DNA Polymerase cleaves the probe between the reporter and the quencher only if the probe hybridizes to the target. The probe fragments are then displaced from the target, and polymerization of the strand continues. The 3′ end of the probe is blocked to prevent extension of the probe during PCR. […] RNA was prepared using the trizol method and treated with DNase to remove contaminating genomic DNA. cDNA was synthesized using standard techniques.

The subject of the next data set is 32345 mRNA. As to the kind of experiment: 32345 mRNA in HUVECs (TaqMan). In kind it is cell-based, human.
Source text: as §1, §2

In data set [1] the test system is 6169 mRNA. As to the kind of experiment: 6169 mRNA in human primary hepatocytes (TaqMan). Type of data set: cell-based.
Source text: as §1, §2

Another data set has as its system isolated rat arterioles. The note with it: compared to basal tone; cited from earlier work.
For the next data set, the system named is coronary arteries. The note with it: disruption of microtubules; cited from earlier work.
For data set [2] the following is noted: humans, betaine supplemented diets vs control group; cited from earlier work.
In the next data set the test system is 10102 mRNA. The data set can be described thus: 10102 mRNA regulation by lipid lowering drugs (TaqMan).
Another data set concerns 9462 mRNA. As to the kind of experiment: 9462 mRNA regulation by lipid lowering drugs (TaqMan).
Source text: as §1, §2

For the next data set, the system named is 2569654 mRNA. As to the kind of experiment: 2569654 mRNA in marmoset models (TaqMan). Type of data set: in vivo.
Source text: as §3, §4

Another data set concerns 3533 mRNA. The data set can be described thus: 3533 mRNA regulation by lipid lowering drugs (TaqMan).
Source text: as §3, §4

In data set [3] the test system is 6169 mRNA. As to the kind of experiment: 6169 mRNA in Marmoset livers (TaqMan). In kind it is in vivo.
Source text: as §1, §2

A further data set concerns 53656 mRNA. As to the kind of experiment: 53656 mRNA in livers of Marmosets (TaqMan). In kind it is in vivo.
For the next data set, the system named is 8921 mRNA. The data set can be described thus: 8921 mRNA expression in marmosets. In kind it is in vivo.
A further data set relates to 9380 mRNA. The data set can be described thus: 9380 mRNA in livers of marmosets (TaqMan). In kind it is in vivo.
The subject of a further data set is 7301 mRNA. As to the kind of experiment: 7301 mRNA in livers of marmosets treated with lipid-lowering therapies (TaqMan). Type of data set: in vivo.
Source text: as §1, §2

For another data set, the system named is 9123 mRNA. The data set can be described thus: 9123 mRNA in livers of marmosets treated with lipid-lowering therapies (TaqMan). Type of data set: in vivo.
Source text: as §1, §2

Another data set relates to 10653 mRNA. As to the kind of experiment: 10653 mRNA in livers of marmosets treated with lipid-lowering therapies (TaqMan). In kind it is in vivo.
The subject of another data set is 2552 mRNA. As to the kind of experiment: 2552 mRNA in marmoset livers (TaqMan). In kind it is in vivo.
Another data set has as its system RAW 264.7. Particulars: RAW 264.7, through down-regulating the activation of Akt; cited from earlier work.
For data set [4] the following is noted: humans; cited from earlier work.

We go through twelve compounds from patent US20050037946A1, “Methods and compositions for treating cardiovascular disease using 1722, 10280, 59917, 85553, 10653, 9235, 21668, 17794, 2210, 6169, 10102, 21061, 17662, 1468, 12282, 6350, 9035, 1820, 23652, 7301, 8925, 8701, 3533, 9462, 9123, 12788, 17729, 65552, 1261, 21476, 33770, 9380, 2569654, 33556, 53656, …” (Millennium Pharmaceuticals, Inc., priority 2003, published 2005).

Turning to `C[C@H](CS)C(=O)N1CCC[C@H]1C(=O)O` [captopril], the “elevated expression of 1510 mRNA in aortic arches of ApoE knockout mice” value in the data set with 1510 mRNA is “blocked”. The “upregulation of 966 mRNA in mice aortic arches” value with 966 mRNA is “inhibited”.

Take VEGF: the “1261 expression in response to angiogenic/inflammatory stimuli” value in the data set with 1261 mRNA is listed as “transient upregulation”. In addition, the “1261 mRNA expression, timecourse” value with 1261 mRNA (1 hour of treatment, statically cultured or shear-stressed cells) is given as “strong upregulation”. In addition, the “1261 mRNA expression” value with 1261 mRNA (VEGF individually) is “upregulated”.

For `CC[C@H](C)C(=O)O[C@H]1CCC=C2C=C[C@H](C)[C@H](CC[C@@H]3C[C@@H](O)CC(=O)O3)[C@H]21` [Mevastatin], in the data set with 32345 mRNA, the “32345 mRNA expression” value is “upregulated”. Also, the “6169 mRNA upregulated” value in the data set on 6169 mRNA [1] worked out at 2.4 fold.

On to `CN[C@H]1CCc2cc(OC)c(OC)c(OC)c2-c2ccc(OC)c(=O)cc21` [demecolcine], for which, in the data set on isolated rat arterioles, the vasoconstriction is listed as 32.7%.

Consider `COC(=O)Nc1nc2ccc(C(=O)c3cccs3)cc2[nH]1` [nocodazole], for which, in the data set with isolated rat arterioles, the vasoconstriction was 29.6%. In addition, the “vascular tension and intracellular calcium levels” value in the data set on coronary arteries is on record as “increases”.

For the compound `C[N+](C)(C)CC(=O)[O-]` [betaine, trimethylglycine], in data set [2], the plasma homocysteine concentration result was “decrease”; the “total and LDL cholesterol concentration” value is given as “small but significant increase”.

As for `O=C(O)c1cccnc1` [niacin], the “10102 mRNA expression” value in the data set on 10102 mRNA is reported as “significantly upregulated”. Also, the “9462 mRNA expression” value in the data set on 9462 mRNA was “upregulated”. Further, the “2569654 mRNA expression” value in the data set with 2569654 mRNA is “upregulated”. Besides, in the data set with 3533 mRNA, the “3533 mRNA expression” value was “significantly downregulated”.

For the compound `COCc1c(C(C)C)nc(C(C)C)c(/C=C/[C@@H](O)C[C@@H](O)CC(=O)O)c1-c1ccc(F)cc1` [cerivastatin], in the data set on 6169 mRNA [3], the “6169 mRNA upregulated” value stood at 2.4 fold. Moreover, the “53656 mRNA upregulated” value with 53656 mRNA was determined as 1.4 fold. The “increase in 8921 mRNA expression” value with 8921 mRNA is 1.4 fold.

Regarding `CC(C)(Sc1cc(C(C)(C)C)c(O)c(C(C)(C)C)c1)Sc1cc(C(C)(C)C)c(O)c(C(C)(C)C)c1` [probucol], the “9380 mRNA expression” value in the data set on 9380 mRNA is reported as “upregulated”. The “7301 mRNA expression” value in the data set with 7301 mRNA is “down-reregulated”. Besides, in the data set with 10102 mRNA, the “10102 mRNA expression” value is listed as “significantly upregulated”. Also, in the data set on 9123 mRNA, the “9123 mRNA expression” value is “upregulated”. Moreover, in the data set with 10653 mRNA, the “10653 mRNA expression” value is “downregualted”. Moreover, in the data set with 2552 mRNA, the “2552 mRNA expression” value is listed as “upregulated”.

As for `CCCCCCCCCCCCC/C=C/[C@@H](O)[C@H](CO)NC(C)=O` [C(2)-ceramide], the “LPS-induced NO production” value with RAW 264.7 was “inhibit”.

Regarding `COc1cc2c(c(OC)c1OC)-c1ccc(OC)c(=O)cc1[C@@H](NC(C)=O)CC2` [Colchicine], the vasoconstriction with isolated rat arterioles is recorded as 33.9%.

For `CC1=C(/C=C/C(C)=C/C=C/C(C)=C\C(=O)O)C(C)(C)CCC1` [13-cis retinoic acid], the lipid profile entry in data set [4] was “increase total cholesterol, ILDL-cholesterol, apoB and triglyceride levels and decrease HDL-cholesterol”.
